Test results as given in paper PMC9328650 (British Journal of Pharmacology, 2021).
One block for each compound: values may come before it.

How the values were obtained:
[1] = test system: HEK293T cells; assay: Cell migration scratch assay, HEK293T; format: cell-based, human; conditions: 20 μM, 40 hr
Description: (§1) MDA‐MB‐231 (ATCC Cat# HTB‐26, RRID:CVCL_0062) or HEK293T (ATCC Cat# CRL‐3216, RRID:CVCL_0063) were seeded into wells of a 12‐well plate (fibronectin coated, 10 μg·ml^−1) and grown to confluence in DMEM supplemented with 10% (v/v) FBS and 1% (v/v) penicillin–streptomycin. Following aspiration of media, a vertical scratch was performed to bisect the well and detached cells were removed by PBS washes. […] Images were analysed using Zeiss Axiovision software, and closure areas calculated using Fiji ImageJ. At 37/40 hr post‐scratch, cells were fixed in 4% (v/v) paraformaldehyde for 20 min and permeabilised with 0.2% (v/v) Triton X‐100 for 10 min. Cells were stained with phalloidin‐568 (dilution of 1:250, in PBS) for 1 hr and following washes, counterstained with DAPI (1:1,000) for 20 min. Cells were washed in PBS and mounted using Vectashield H‐1000.

[2] = target: T1, ERp5 (Homo sapiens, UniProt Q15084); assay: Insulin turbidity assay, ERp5; format: biochemical; conditions: ERp5 30 μg·ml^−1, 650 nm, 37°C
T1 sequence (Q15084 20-440): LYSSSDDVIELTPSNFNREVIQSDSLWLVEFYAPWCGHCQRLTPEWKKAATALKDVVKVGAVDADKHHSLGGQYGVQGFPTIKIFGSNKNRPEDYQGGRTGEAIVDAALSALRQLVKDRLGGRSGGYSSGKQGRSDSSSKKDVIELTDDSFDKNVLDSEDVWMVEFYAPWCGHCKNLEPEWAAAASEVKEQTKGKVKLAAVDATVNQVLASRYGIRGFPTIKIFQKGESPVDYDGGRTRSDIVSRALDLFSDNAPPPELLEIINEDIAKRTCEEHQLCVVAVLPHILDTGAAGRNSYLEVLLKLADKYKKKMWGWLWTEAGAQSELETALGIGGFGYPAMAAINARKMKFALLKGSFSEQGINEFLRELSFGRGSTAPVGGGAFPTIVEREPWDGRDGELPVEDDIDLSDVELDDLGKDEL
Description: (§2) Initial compound library screening was performed in an insulin turbidity assay adapted for high‐throughput screening (Holmgren, [1979]; Smith et al., [2004]). The reduction of the disulphide bond in insulin by a thiol isomerase results in the separation of the A and B chains and precipitation, which is measured by spectrophotometry at a wavelength of 650 nm. Using Corning 3891 well plates (with a final volume of 10 μl), a final concentration of 10 μg·ml^−1 of ERp57, 125‐μM insulin and 2‐mM EDTA in potassium phosphate buffer (100 mM) was added to each experimental well. Bacitracin (3 mM) was added to select wells as a positive control and vehicle plates served as a negative control. Experimental compounds were pin transferred to the wells at a final concentration of 30 μM and plates shaken. After incubation for 10 min, 0.3‐mM DTT was added to propagate enzyme activity. Following reaction for 1 hr at 37°C, plates were read using a PerkinElmer Envision plate reader (PerkinElmer, Waltham, MA). All compounds were tested in duplicate at the ICCB‐Longwood Screening Facility at Harvard Medical School.
(§3) Lead compounds were diluted in a 6‐point dose curve (concentrations depending on the observed effects in the initial screen) and insulin turbidity was measured kinetically each minute for 75 min using a Spectramax M3 microplate reader (Molecular Devices, Sunnyvale, CA). […]

[3] = design: method as in Fischer et al., [2000]; conditions: oral 20 mg twice daily; ref Fischer et al., [2000]; cited from earlier work
[4] = test system: MDA-MB-231 cells; assay: Cell migration scratch assay, MDA-MB-231; format: cell-based, human; conditions: 20 μM, 37 hr
Description: as §1

[5] = test system: thrombus formation; assay: Laser injury arterial thrombus formation, cremaster muscle arterioles, intravital microscopy; format: in vivo, mouse; conditions: 20 μM circulating concentration, i.v., male C57BL/6J mice, n = 12 thrombi
Description: (§4) Male C57BL/6J mice (RRID:IMSR_JAX:000664 bred in house, at age 4–5 weeks with a weight range of 19–25 g) were anaesthetised by intraperitoneal injection of ketamine (125 mg·kg^−1), xylazine (12.5 mg·kg^−1) and atropine (0.25 mg·kg^−1). Platelets were labelled by intravenous infusion of DyLight 649‐conjugated anti‐GPIb platelet labelling antibody (0.2 μg·g^−1 body weight). […] Thrombi were observed using an Olympus BX microscope (Olympus, Essex, UK) and a Hamamatsu (Hamamatsu Photonics, Hertfordshire, UK) CCD camera and data analysed using Slidebook Software version 5.0 (Intelligent Imaging Innovations, Denver, USA) (Falati et al., [2006]; Holbrook et al., [2018]; Holbrook et al., [2012]). Mice were killed using Schedule 1 approved methods at the end of the experiment. […] Time to bleeding cessation was recorded. […] Animal experiments were approved by the University of Reading Local Ethical Review Panel and authorised by the UK Home Office. […]
(§5) Following laser injury, images were recorded for 5 min. […] Graphs represent mean ± SEM, n = 10 per treatment; data were analysed by Student's t‐test, *P < 0.05

[6] = target: T2, thioredoxin (TRX) (Homo sapiens, UniProt P10599); assay: Insulin turbidity assay, thioredoxin; format: biochemical; conditions: for Effect on enzyme activity of thioredoxin: 300 μM, highest concentration tested
T2 sequence (P10599 1-105): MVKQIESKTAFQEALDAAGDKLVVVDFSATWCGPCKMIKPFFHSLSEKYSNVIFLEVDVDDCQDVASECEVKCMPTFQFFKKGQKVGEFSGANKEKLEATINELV
Description: as §2
(§6) Lead compounds were diluted in a 6‐point dose curve (concentrations depending on the observed effects in the initial screen) and insulin turbidity was measured kinetically each minute for 75 min using a Spectramax M3 microplate reader (Molecular Devices, Sunnyvale, CA). Specificity assay also utilised the insulin turbidity assay to determine specificity of inhibition; ERp57 was replaced with PDI (10 μg·ml^−1), ERp5 (30 μg·ml^−1), ERp72 (10 μg·ml^−1) or thioredoxin (10 μg·ml^−1), to determine the ability of lead compounds to inhibit these enzymes.
(§7) A total of 3,641 compounds were screened for inhibitory effects on the redox activity of ERp5, protein disulphide isomerase (PDI), ERp57, ERp72 and thioredoxin (TRX), all assayed at 10 μg·ml^−1 except ERp5 which was assayed at 30 μg·ml^−1. ZFL was selected for further investigation. […] (a) Enzyme assays performed in the absence of enzyme with drug only.

[7] = test system: MDA-MB-231 cell-surface free thiols; assay: Cell-surface free thiol labelling with MPB, MDA-MB-231; format: cell-based, human; conditions: 20 μM, vs vehicle
Description: (§8) MDA‐MB‐231 or HEK293T cells were cultured and treated as described before. Four hours post‐treatment, cells were washed with PBS, and free thiols labelled by incubation with MPB (100 μM) for 20 min. Free label was removed by multiple PBS washes, and cells were lysed in reducing sample treatment buffer for SDS‐PAGE analysis. Thiol labelling was detected using streptavidin‐HRP conjugate (1:10,000 dilution in 5% [w/v] BSA/TBS‐T), and chemiluminescence captured following the addition of ECL substrate.

[8] = test system: haemostasis (bleeding time); assay: Tail bleeding assay; format: in vivo, mouse; conditions: 20 μM circulating concentration, femoral vein, 5 min before tail biopsy, n = 10; vehicle 225 s ± 28 s; not significant
Description: as §4, §5

[9] = test system: HEK293T cell-surface free thiols; assay: Cell-surface free thiol labelling with MPB, HEK293T; format: cell-based, human; conditions: 20 μM, vs vehicle
Description: as §8

[10] = target: PDI (Homo sapiens, UniProt P07237); assay: Insulin turbidity assay, PDI; format: biochemical; conditions: for Effect on enzyme activity of PDI: 300 μM, highest concentration tested
Sequence of PDI (P07237 18-508, species assumed): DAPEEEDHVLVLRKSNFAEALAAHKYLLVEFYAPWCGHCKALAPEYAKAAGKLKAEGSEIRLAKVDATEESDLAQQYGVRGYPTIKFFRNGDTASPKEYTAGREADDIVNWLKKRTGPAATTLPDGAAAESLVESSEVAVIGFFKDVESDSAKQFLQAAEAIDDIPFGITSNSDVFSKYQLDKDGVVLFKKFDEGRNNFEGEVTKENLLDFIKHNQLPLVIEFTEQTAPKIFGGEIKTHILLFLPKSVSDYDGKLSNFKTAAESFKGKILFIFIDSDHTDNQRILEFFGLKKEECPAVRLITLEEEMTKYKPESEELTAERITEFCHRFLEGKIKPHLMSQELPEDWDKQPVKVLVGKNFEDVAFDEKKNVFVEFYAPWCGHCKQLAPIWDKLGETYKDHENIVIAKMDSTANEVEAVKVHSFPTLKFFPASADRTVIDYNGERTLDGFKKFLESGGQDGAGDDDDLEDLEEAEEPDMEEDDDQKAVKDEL
Description: as §2, §6, §7

[11] = test system: HEK293T cells; assay: Proliferation assay, HEK293T; format: cell-based, human; conditions: 1–30 μM, 72 hr
Description: (§9) MDA‐MB‐231 or HEK293T cells were seeded at a density of 2.5 × 10^5 cells per well in a six‐well cell culture plate and grown for 24 hr. […] Following drug treatment, wells were washed and cells manually counted by haemocytometer or automatically using a Coulter counter (Beckman Coulter, CA, USA). Cell growth inhibition was calculated by comparing the counts of drug treated cells with untreated (control) cells as described previously (Kennedy et al., [2007]).

[12] = target: T3, ERp72 (Homo sapiens, UniProt P13667); assay: Insulin turbidity assay, ERp72; format: biochemical; conditions: ERp72 10 μg·ml^−1, 650 nm, 37°C
T3 sequence (P13667 21-645): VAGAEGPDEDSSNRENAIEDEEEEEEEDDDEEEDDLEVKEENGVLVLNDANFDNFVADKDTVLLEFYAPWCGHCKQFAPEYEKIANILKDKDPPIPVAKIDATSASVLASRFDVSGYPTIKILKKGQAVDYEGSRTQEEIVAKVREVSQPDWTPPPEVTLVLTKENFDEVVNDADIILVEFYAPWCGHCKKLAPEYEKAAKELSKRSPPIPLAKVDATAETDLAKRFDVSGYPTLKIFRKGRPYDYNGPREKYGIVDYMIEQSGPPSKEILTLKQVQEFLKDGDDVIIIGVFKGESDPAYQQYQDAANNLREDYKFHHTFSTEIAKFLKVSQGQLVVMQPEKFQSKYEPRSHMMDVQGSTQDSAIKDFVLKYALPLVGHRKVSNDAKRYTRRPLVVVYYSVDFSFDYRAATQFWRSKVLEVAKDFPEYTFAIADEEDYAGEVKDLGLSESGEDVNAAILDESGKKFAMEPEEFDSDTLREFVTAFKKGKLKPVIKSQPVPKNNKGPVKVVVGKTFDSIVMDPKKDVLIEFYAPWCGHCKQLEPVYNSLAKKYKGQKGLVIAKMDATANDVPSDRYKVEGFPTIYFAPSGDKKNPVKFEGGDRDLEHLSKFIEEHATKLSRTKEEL
Description: as §2, §3

[13] = test system: MDA-MB-231 cells; assay: 3-day growth inhibition (proliferation) assay, MDA-MB-231; format: cell-based, human; conditions: 72 hr
Description: as §9

[14] = target: T4, ERp57 (Homo sapiens, UniProt P30101); assay: Insulin turbidity assay, ERp57; format: biochemical; conditions: for Effect on enzyme activity of ERp57: 300 μM, highest concentration tested
T4 sequence (P30101 25-505): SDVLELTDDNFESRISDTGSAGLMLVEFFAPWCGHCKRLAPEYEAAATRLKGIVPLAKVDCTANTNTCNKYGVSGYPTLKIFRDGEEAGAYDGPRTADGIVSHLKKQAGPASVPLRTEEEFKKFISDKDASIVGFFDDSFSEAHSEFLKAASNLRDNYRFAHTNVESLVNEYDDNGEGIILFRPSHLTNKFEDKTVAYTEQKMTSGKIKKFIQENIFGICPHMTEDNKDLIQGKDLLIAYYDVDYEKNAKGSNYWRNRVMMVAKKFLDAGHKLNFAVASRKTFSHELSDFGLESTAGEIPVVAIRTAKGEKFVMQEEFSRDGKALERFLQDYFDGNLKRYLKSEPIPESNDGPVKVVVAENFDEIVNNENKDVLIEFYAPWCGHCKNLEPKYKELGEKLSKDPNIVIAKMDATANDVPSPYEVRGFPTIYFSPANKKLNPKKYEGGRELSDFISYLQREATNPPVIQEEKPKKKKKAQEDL
Description: as §2, §6, §7

Inhibition of ERp5 activity, concentration dependence [2]: concentration dependently inhibits
Effect on enzyme activity of thioredoxin [6]: almost entirely ablate
Inhibition of thioredoxin (TRX) activity, concentration dependence ([6]; TRX 10 μg·ml^−1, 650 nm, 37°C): concentration dependently inhibits
Bleeding time [8]: 243 s
Effect on enzyme activity of PDI [10]: almost entirely ablate
Inhibition of PDI activity, concentration dependence ([10]; PDI 10 μg·ml^−1, 650 nm, 37°C): concentration dependently inhibits
Inhibition of ERp72 activity, concentration dependence [12]: concentration dependently inhibits
Effect on enzyme activity of ERp57 [14]: almost entirely ablate
Inhibition of ERp57 activity, concentration dependence ([14]; ERp57 10 μg·ml^−1, 650 nm, 37°C): concentration dependently inhibits
SMILES: COc1cc(C(=O)NS(=O)(=O)c2ccccc2C)ccc1Cc1cn(C)c2ccc(NC(=O)OC3CCCC3)cc12 [zafirlukast]
Closure area at endpoint ([1]; vehicle 80,686 [±15,705]): 1,475,154 [±81,061]
Scratch area coverage (migration) at endpoint ([1]; vehicle over 96%): 32%
Peak plasma concentration (cMax) [3]: 697 ng/mL
Peak plasma concentration, equivalent [3]: 1.2 µM
Time of peak plasma concentration [3]: 3 h
Closure area at endpoint ([4]; vehicle 62,163 ± 23,552): 243,707 ± 51,057
Scratch area covered at endpoint ([4]; vehicle over 86%): 56%
Thrombus size (maximum fluorescence intensity) [5]: significantly impaired
Reduction of surface free thiol (MPB) labelling [7]: 42%
Decrease of surface MPB labelling [9]: 47%
Impairment of cell proliferation [11]: not detected
Effect on cell proliferation ([13]; 20 μM): minimal effect
Reduction of proliferation ([13]; 30 μM): around 20%

Effect on enzyme activity of thioredoxin [6]: almost entirely ablate
Effect on enzyme activity of PDI [10]: almost entirely ablate
Effect on enzyme activity of ERp57 [14]: almost entirely ablate
SMILES: CC(C)(O)c1ccccc1CC[C@@H](SCC1(CC(=O)O)CC1)c1cccc(/C=C/c2ccc3ccc(Cl)cc3n2)c1 [montelukast]
